The assay addresses human TPH1 (Homo sapiens (Human), UniProt P17752). As to the kind of experiment: Biochemical in vitro assay using fluorescence readout (TPH1 inhibition).
[1] abbreviates: human TPH1, fluorescence readout.

human TPH1, sequence (P17752 whole entry): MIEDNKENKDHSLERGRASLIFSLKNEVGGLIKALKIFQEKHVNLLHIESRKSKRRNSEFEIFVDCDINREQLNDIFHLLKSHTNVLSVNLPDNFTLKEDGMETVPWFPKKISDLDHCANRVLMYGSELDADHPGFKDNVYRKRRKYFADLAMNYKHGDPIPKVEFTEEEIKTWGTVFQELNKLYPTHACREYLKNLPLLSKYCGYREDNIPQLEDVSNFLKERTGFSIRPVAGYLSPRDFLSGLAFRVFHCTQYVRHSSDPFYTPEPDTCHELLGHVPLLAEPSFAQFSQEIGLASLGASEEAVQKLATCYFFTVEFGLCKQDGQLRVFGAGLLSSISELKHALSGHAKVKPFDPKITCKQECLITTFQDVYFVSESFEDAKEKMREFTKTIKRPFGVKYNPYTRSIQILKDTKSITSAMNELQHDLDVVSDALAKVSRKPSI

In general, IC50 refers to the concentration that gives 50% inhibition. Higher therefore signals weaker potency. Compound `O=C(COc1ccc(Cl)cc1Cl)N1CCc2nc3sccn3c2C1c1nc2ccccc2s1` (stereo not drawn) [Example 6.12.3, 1-(5-(benzo[d]thiazol-2-yl)-7,8-dihydrothiazolo-[2′,3′:2,3]imidazo[4,5-c]pyridin-6(5H)-yl)-2-(2,4-dichlorophenoxy)ethanone] came in with an IC50 under setting [1] of 20 nM. For the compound `COc1ccc(C2c3c(nc4sc(C)nn34)CCN2C(=O)COc2ccc(C(=O)NC3CC3)nc2Cl)c(F)c1` (stereo not drawn) [Example 1.3.3, 6-chloro-N-cyclopropyl-5-(2-(5-(2-fluoro-4-methoxyphenyl)-2-methyl-7,8-dihydro-[1,3,4]thiadiazolo[2′,3′:2,3]imidazo[4,5-c]pyridin-6(5H)-yl)-2-oxoethoxy)picolinamide], under setting [1], it took 10 nM to reach half-maximal inhibition (IC50). This IC50 lies about 2-fold lower than the previous one. Consider `Cc1nn2c3c(nc2s1)CCN(C(=O)COc1ccc(N2CC(F)(F)C2)nc1Cl)C3c1cnc(N(C)C)s1` (stereo not drawn) [Example 1.22.8, 2-((2-Chloro-6-(3,3-difluoroazetidin-1-yl)pyridin-3-yl)oxy)-1-(5-(2-(dimethylamino)-thiazol-5-yl)-2-methyl-7,8-dihydro-[1,3,4]thiadiazolo[2′,3′:2,3]imidazo[4,5-c]pyridin-6(5H)-yl)ethanone], for which the IC50 (full length human TPH1, 40 μM L-tryptophan, 15° C., 60 minutes, fluorescence at 540 nm, mean if determined several times) came to 19 nM. Under setting [1], `CCc1nn2c3c(nc2s1)CCN(C(=O)COc1ccc(C#N)cc1Cl)C3c1ccc(Cl)cc1F` (stereo not drawn) [Example 3.1.2, 3-chloro-4-(2-(5-(4-chloro-2-fluorophenyl)-2-ethyl-7,8-dihydro-[1,3,4]thiadiazolo[2′,3′:2,3]imidazo[4,5-c]pyridin-6(5H)-yl)-2-oxoethoxy)benzonitrile] gave an IC50 of 15 nM. That is a double-digit nanomolar value. `CCc1nn2c3c(nc2s1)CCN(C(=O)COc1ccc(NS(C)(=O)=O)nc1Cl)C3c1ccc(Cl)cc1F` (stereo not drawn) [Example 3.1.1, N-(6-chloro-5-(2-(5-(4-chloro-2-fluorophenyl)-2-ethyl-7,8-dihydro-[1,3,4]thiadiazolo[2′,3′:2,3]imidazo[4,5-c]-pyridin-6(5H)-yl)-2-oxoethoxy)pyridin-2-yl)methanesulfonamide] registered an IC50 under setting [1] of 13 nM.

In turn, `CCc1cc(Cl)ccc1OCC(=O)N1CCc2nc3sccn3c2C1c1c(C)noc1C` (stereo not drawn) [Example 6.5.5, 2-(4-chloro-2-ethylphenoxy)-1-(5-(3,5-dimethylisoxazol-4-yl)-7,8-dihydrothiazolo[2′,3′:2,3]imidazo[4,5-c]pyridin-6(5H)-yl)ethanone] came in with a half-maximal inhibitory concentration (IC50) under setting [1] of 135 nM. Against the preceding compound, the IC50 is about 10-fold higher.

In turn, `Cc1nn2c3c(nc2s1)CCN(C(=O)COc1ccc(N(C)CC(F)(F)F)nc1Cl)C3c1ncc(C2CC2)cc1F` (stereo not drawn) [Example 1.14.10, 2-((2-chloro-6-(methyl(2,2,2-trifluoroethyl)amino)pyridin-3-yl)oxy)-1-(5-(5-cyclopropyl-3-fluoropyridin-2-yl)-2-methyl-7,8-dihydro-[1,3,4]thiadiazolo[2′,3′:2,3]imidazo[4,5-c]pyridin-6(5H)-yl)ethanone] displayed an IC50 under setting [1] of 4 nM. In the case of `Cc1nn2c3c(nc2s1)CCN(C(=O)COc1ccc(S(N)(=O)=O)cc1C)C3c1ccc(Cl)nc1F` (stereo not drawn) [Example 1.16.2, 4-(2-(5-(6-chloro-2-fluoropyridin-3-yl)-2-methyl-7,8-dihydro-[1,3,4]thiadiazolo[2′,3′:2,3]imidazo[4,5-c]pyridin-6(5H)-yl)-2-oxoethoxy)-3-methylbenzenesulfonamide], under setting [1], half-maximal inhibition (IC50) was put at 74 nM. The same measure, in the same setting: in the case of `Cc1nn2c3c(nc2s1)CCN(C(=O)COc1ccc(C(=O)N(C)C)nc1Cl)C3c1ccc(C)c(F)c1F` (stereo not drawn) [Example 1.61.1, 6-chloro-5-(2-(5-(2,3-difluoro-4-methylphenyl)-2-methyl-7,8-dihydro-[1,3,4]thiadiazolo[2′,3′:2,3]imidazo[4,5-c]pyridin-6(5H)-yl)-2-oxoethoxy)-N,N-dimethylpicolinamide] it was 7 nM; in that of `Cc1nn2c3c(nc2s1)CCN(C(=O)COc1ccc(NS(C)(=O)=O)nc1Cl)C3c1ncc(F)cc1C` (stereo not drawn) [Example 1.75.1, N-(6-chloro-5-(2-(5-(5-fluoro-3-methylpyridin-2-yl)-2-methyl-7,8-dihydro-[1,3,4]thiadiazolo[2′,3′:2,3]imidazo[4,5-c]pyridin-6(5H)-yl)-2-oxoethoxy)pyridin-2-yl)methanesulfonamide], 9 nM. For `CCN(CC)C(=O)c1ccc(OCC(=O)N2CCc3nc4sc(C)nn4c3[C@@H]2c2sccc2F)c(Cl)n1` [Example 1.23.14, (R)-6-chloro-N,N-diethyl-5-(2-(5-(3-fluorothiophen-2-yl)-2-methyl-7,8-dihydro-[1,3,4]thiadiazolo[2′,3′:2,3]imidazo[4,5-c]pyridin-6(5H)-yl)-2-oxoethoxy)picolinamide], the IC50 under setting [1] was 19 nM. This IC50 lies about 2.1-fold higher than the previous one. `O=C(COc1ccc(C(F)(F)F)cc1Cl)N1CCc2nc3sccn3c2C1c1cnn(-c2ccccc2)c1` (stereo not drawn) [Example 6.13.8, 2-(2-chloro-4-(trifluoromethyl)phenoxy)-1-(5-(1-phenyl-1H-pyrazol-4-yl)-7,8-dihydrothiazolo[2′,3′:2,3]-imidazo[4,5-c]pyridin-6(5H)-yl)ethanone] returned an IC50 under setting [1] of 80 nM. This IC50 is about 4.2-fold higher than that of the compound before. Still for that read-out and setting: in the case of `COC1(c2cnc(C3c4c(nc5sc(C)nn45)CCN3C(=O)COc3ccc(N4CCOCC4)nc3Cl)s2)COC1` (stereo not drawn) [Example 1.65.1, 2-((2-chloro-6-morpholinopyridin-3-yl)oxy)-1-(5-(5-(3-methoxyoxetan-3-yl)thiazol-2-yl)-2-methyl-7,8-dihydro-[1,3,4]thiadiazolo[2′,3′:2,3]imidazo[4,5-c]pyridin-6(5H)-yl)ethanone] it was 208 nM; in that of `COC(=O)c1ccc(OCC(=O)N2CCc3nc4sc(C)nn4c3C2c2ccc(C3CC3)cc2F)c(Cl)n1` (stereo not drawn) [Example 1.6.21, Methyl 6-chloro-5-(2-(5-(4-cyclopropyl-2-fluorophenyl)-2-methyl-7,8-dihydro-[1,3,4]thiadiazolo[2′,3′:2,3]imidazo[4,5-c]pyridin-6(5H)-yl)-2-oxoethoxy)picolinate], 8 nM. `Cc1ccc(OCC(=O)N2CCc3nc4sc(C)nn4c3C2c2ccc(C3CC3)cc2F)c(C)n1` (stereo not drawn) [Example 1.6.3, 1-(5-(4-cyclopropyl-2-fluorophenyl)-2-methyl-7,8-dihydro-[1,3,4]thiadiazolo[2′,3′:2,3]imidazo[4,5-c]pyridin-6(5H)-yl)-2-((2,6-dimethylpyridin-3-yl)oxy)ethanone] returned an IC50 under setting [1] of 13 nM.

`COc1ccc(C2c3c(nc4sc(C)nn34)CCN2C(=O)COc2ccc(CN3CCOCC3)nc2Cl)c(F)c1` (stereo not drawn) [Example 1.3.2, 2-((2-chloro-6-(morpholinomethyl)pyridin-3-yl)oxy)-1-(5-(2-fluoro-4-methoxyphenyl)-2-methyl-7,8-dihydro-[1,3,4]thiadiazolo[2′,3′:2,3]imidazo[4,5-c]pyridin-6(5H)-yl)ethanone]: under setting [1], half-maximal inhibition (IC50) required 9 nM. This IC50 and that of the compound before are within 1.5-fold of each other. The compound `Cc1ccc(C2c3c(nc4sc(C)nn34)CCN2C(=O)COc2ccc(-c3ncco3)nc2Cl)c(F)c1` (stereo not drawn) [Example 1.53.1, 2-((2-chloro-6-(oxazol-2-yl)pyridin-3-yl)oxy)-1-(5-(2-fluoro-4-methylphenyl)-2-methyl-7,8-dihydro-[1,3,4]thiadiazolo[2′,3′:2,3]imidazo[4,5-c]pyridin-6(5H)-yl)ethanone] gave an IC50 under setting [1] of 9 nM.

The compound `CCOC(=O)c1ncc(C2c3c(nc4sc(C)nn34)CCN2C(=O)COc2ccc(C(F)(F)F)cc2Cl)s1` (stereo not drawn) [Example 1.30.2, Ethyl 5-(6-(2-(2-chloro-4-(trifluoromethyl)phenoxy)acetyl)-2-methyl-5,6,7,8-tetrahydro-[1,3,4]thiadiazolo [2′,3′:2,3]imidazo[4,5-c]pyridin-5-yl)thiazole-2-carboxylate] had an IC50 under setting [1] of 442 nM.

The values are drawn from patent US9765092B2, “Tricyclic piperidine compounds” (ACTELION PHARMACEUTICALS LTD, priority 2013, dated 2017).
